Test results published in patent US11286247B2, “Acryloyl-containing nuclear transport regulators and uses thereof” (WIGEN BIOMEDICINE TECHNOLOGY (SHANGHAI) CO., LTD., priority 2019, dated 2022).
In brackets after ≈: the same amount, converted by molar mass. Entries after “also recorded” stand apart in the source; their conditions may differ. Where two headings read alike, the source gives them in different places.

How the values were obtained:
[1] = tested on: MDA-MB-231 cells (breast cancer cells); assay: Cancer cell proliferation assay, MDA-MB-231; type: cell-based; conditions: Homo sapiens, MDA-MB-231, 72 h; three days incubation, absorbance 570 nm; read-out: IC50 (μM) MDA-MB-231
Protocol: (§1) BxPC-3 cells (pancreatic cancer) and MDA-MB-231 cells (breast cancer cells) were harvested from exponential phase cultures and seeded in 96-well plates at a cell density of 2×10^4 per well. After overnight attachment, compounds including positive controls were applied to cells at five concentrations and incubated for three days. During the last four hours of incubation, 20 μL of 5 mg/mL […] was added followed by the further addition of 100 μL DMSO. The plates were subsequently shook for 10 minutes to dissolve insoluble purple formazan. Absorbance (A) at a wavelength of 570 nm was quantified. Percentage of inhibition was used for the calculation of IC50 based on the bliss method.

Aqueous solubility assay = type: physicochemical; conditions: thermodynamic from solid, HPLC
Protocol: 10-30 mg of compounds were dissolved in water and an HCl solution at pH1.2 respectively, and then were continuously shook for three days, followed by centrifugation at 10000 rpm/minute for five minutes. A 2 mL aliquot of supernatant was removed and diluted to 50 mL to prepare a sample solution. A control solution was prepared by dissolving 2.5 mg compounds in methanol, which was subsequently diluted with water to a final volume of 50 mL. 20 μL of control and sample solutions were injected into HPLC. The area under the curve (A) of the sample solution was compared with that of the control solution and used for determination of the concentration. Solubility was calculated by the formula below. Solubility (mg/mL)=c(control)*25*A(sample)/A(control) • C (control): concentration of the control solution • A (sample): area under the curve of the sample solution • A (control): area under the curve of the control solution

CRM1 = target: T1, CRM1 (Homo sapiens, UniProt O14980); assay: Rev-GFP nuclear export assay; type: cell-based; conditions: U2OS cells expressing Rev-GFP, 1 hour incubation, nuclear retention of Rev-GFP
T1 construct: The nuclear localization of Rev protein depends on CRM1; endogenous in cells; host or cells: U2OS cells stably or transiently expressing Rev-GFP (reporter cargo)
T1 sequence (O14980 whole entry): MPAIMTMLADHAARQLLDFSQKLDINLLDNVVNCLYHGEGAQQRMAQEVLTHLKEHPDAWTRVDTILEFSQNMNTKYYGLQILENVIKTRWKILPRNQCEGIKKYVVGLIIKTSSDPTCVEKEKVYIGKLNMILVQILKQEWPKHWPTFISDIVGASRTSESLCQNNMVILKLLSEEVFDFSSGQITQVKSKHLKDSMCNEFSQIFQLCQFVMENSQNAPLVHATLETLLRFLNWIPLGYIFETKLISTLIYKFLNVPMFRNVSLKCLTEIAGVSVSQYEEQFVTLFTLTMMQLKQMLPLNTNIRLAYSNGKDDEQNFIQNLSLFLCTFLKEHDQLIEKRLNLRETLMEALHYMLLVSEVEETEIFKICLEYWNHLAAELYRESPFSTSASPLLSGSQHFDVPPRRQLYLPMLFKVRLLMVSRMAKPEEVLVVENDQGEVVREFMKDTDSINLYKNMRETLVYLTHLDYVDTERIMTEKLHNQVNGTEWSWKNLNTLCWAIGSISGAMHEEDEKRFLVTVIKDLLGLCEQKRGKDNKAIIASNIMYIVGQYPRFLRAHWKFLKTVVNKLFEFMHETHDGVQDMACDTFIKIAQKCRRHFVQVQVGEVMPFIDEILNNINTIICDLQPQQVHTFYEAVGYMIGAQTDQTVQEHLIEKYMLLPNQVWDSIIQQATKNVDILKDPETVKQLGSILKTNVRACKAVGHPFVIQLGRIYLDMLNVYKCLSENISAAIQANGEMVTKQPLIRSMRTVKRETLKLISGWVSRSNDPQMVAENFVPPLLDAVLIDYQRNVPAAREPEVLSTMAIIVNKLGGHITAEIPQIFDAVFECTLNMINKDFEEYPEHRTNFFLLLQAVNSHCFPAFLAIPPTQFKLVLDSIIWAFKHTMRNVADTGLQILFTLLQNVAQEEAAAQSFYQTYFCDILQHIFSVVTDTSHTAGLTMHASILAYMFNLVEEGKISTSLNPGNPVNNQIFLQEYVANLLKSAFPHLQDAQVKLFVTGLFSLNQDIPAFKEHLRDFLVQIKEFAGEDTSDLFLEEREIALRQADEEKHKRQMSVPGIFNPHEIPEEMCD
Protocol: The Rev protein from HIV contains nuclear export sequence (NES) at its C terminus and nuclear localization sequence (NLS) at its N-terminus. The nuclear localization of Rev protein depends on CRM1. U2OS cells expressing Rev protein fused with GFP (Rev-GFP) were plated in black 384 plates with clear bottom one day prior to treatment. Compounds were serially diluted 2-fold from 40 μM with DMEM in 384 plates, and then incubated with U2OS cells for an hour. Cells were fixed with 3.7% formaldehyde afterwards and nuclei were stained with Hoechst33258. The nuclear retention of Rev-GFP was examined, and IC50 was calculated.

[2] = tested on: BxPC-3 cells (pancreatic cancer); assay: Cancer cell proliferation assay, BxPC-3; type: cell-based; conditions: Homo sapiens, BXPC-3, 72 h; three days incubation, absorbance 570 nm; read-out: IC50 (μM) BxPC-3
Protocol: as §1

BxPC-3 xenografts = assay: Anti-tumor growth efficacy in pancreatic tumor BxPC3 nude mice xenograft model; type: in vivo
Protocol: BxPC-3 cells were cultured in 1640 medium containing 10% FBS at 37° C. and 5% CO2, 8×10^6 BxPc-3 cells were implanted subcutaneously into the left armpit of 40 nude mice. […] Compound 62 was administered orally everyday (qd) at 10 mg/kg, whereas KPT330 and compound 38 were given three times a week (tiw, Monday, Wednesday and Friday) at 10 mg/kg by oral gavage, and compound 79 were given three times a week (tiw, Monday, Wednesday and Friday) at 2.5 mg/kg by oral gavage. Tumor volume and body weight were measured every other day. Mice were sacrificed on day 21, and tumor and terminal body weight were recorded. The relative tumor volume, percent treatment/control values and tumor growth inhibition were calculated and statistics was performed.

[3] = In vivo pharmacokinetic analysis; conditions: ICR, mouse; mice, 5 mg/kg, oral gavage in 0.5% CMC, plasma
Protocol: A group of 9 ICR mice received 5 mg/kg of compound in 0.5% CMC by oral gavage. Blood was taken before treatment and at 5 min, 30 min, 1, 2, 4, 8, 12 and 24 h after treatment. 80 μL of whole blood was sampled (n=3 at each time point) via retro-orbital bleeds or cardiac puncture. The blood sample was collected into EDTA tubes and plasma were obtained by centrifugation at 1500-1600 rpm for 10 min at 4° C. After centrifugation, plasma sample was transferred to a new tube and stored at −60 to −90° C. for future analysis. Plasma concentration of (compounds was quantified by a method based on liquid chromatography coupled to tandem mass-spectrometric detections (LC/MS/MS). Noncompartmental pharmacokinetics parameters were calculated.

[4] = D1, first day of drug treatment, oral: KPT-330 and 38 10 mg/kg tiw, 79 2.5 mg/kg tiw, 62 10 mg/kg qd
[5] = D21, oral: KPT-330 and 38 10 mg/kg tiw, 79 2.5 mg/kg tiw, 62 10 mg/kg qd

IC50 [1]: 0.126 µM | solubility at 3 days (Aqueous solubility assay; simulated gastric fluid, HCl solution of pH 1.2, shaken three days, read-out: Solubility, HCl solution of pH 1.2): 8.54 µg/mL (≈ 18.5 µM) | solubility at 3 days (Aqueous solubility assay; water, shaken three days, read-out: Solubility, Water): 7.89 µg/mL (≈ 17.1 µM) | IC50 (CRM1): < 1 µM | IC50 [2]: 0.204 µM | AUC(0-t) [3]: 3.41 µg·h/mL | Cmax [3]: 0.44 µg/mL | MRT [3]: 5.89 h | Tmax [3]: 1 h | half-life [3]: 3.42 h
SMILES: COC1=CC(=O)N(NC(=O)/C=C\n2cnc(-c3cc(C(F)(F)F)cc(C(F)(F)F)c3)n2)C1 [Compound 79, (Z)-3-(3-(3,5-bis(trifluoromethyl)phenyl)-1H-1,2,4-triazol-1-yl)-N-(4-methoxy-2-oxo-2,5-dihydro-1H-pyrrol-1-yl)acrylamide]
Tumor volume D1 (BxPC-3 xenografts; [4]): 66.87 ± 9.13 mm^3 | average body weight D1 (BxPC-3 xenografts; [4]): 20.15 g | TGI (tumor growth inhibition) (BxPC-3 xenografts; [5]): 84.37% | Tumor volume D21 (BxPC-3 xenografts; [5]): 126.90 ± 17.73 mm^3 | average body weight D21 (BxPC-3 xenografts; [5]): 21.30 g | RTV (relative tumor volume, Vt/V0) (BxPC-3 xenografts; D21, oral: KPT-330 and 38 10 mg/kg tiw, 79 2.5 mg/kg tiw, 62 10 mg/kg qd, *P < 0.05 vs. vehicle group): 1.63* | anti-tumor growth activity in BxPC-3 xenograft model (in words) (BxPC-3 xenografts; Example 79 2.5 mg/kg, Example 38 10 mg/kg, compared to 10 mg/kg KPT-330): significant anti-tumor growth activity; also recorded: more potent in inhibiting tumor growth | T/C (BxPC-3 xenografts; TRTV/CRTV X 100, oral: KPT-330 and 38 10 mg/kg tiw, 79 2.5 mg/kg tiw, 62 10 mg/kg qd): 49.20%
